{"source": "patent US10830772B2", "about": "“Detection method and kit” (The European Union, represented by the European Commission, priority 2015, dated 2020)", "test_system": "AhR2 from zebrafish", "assay": "Fluorescence binding of the ligand probe to recombinant AhR protein (excitation 280 nm, emission 450 nm)", "description": "The inventors expressed the encoding gene sequence for the AhR2 from zebrafish in Escherichia coli cells to produce the high yield of a 600 amino acid recombinant protein. The protein was purified by using Histidine tag affinity column. The protocol used allowed to obtain a good yield of pure protein that is correctly folded.\nThe inventors developed an assay for the Aryl Hydrocarbon Receptor binding activity as an alternative to known methods and investigated which molecules are the most suitable for building a competitive binding assay as in vitro ligands, and to make these molecules fluorescent or more fluorescent. […] The same concentration of ethyl 5,11-dihydroindolo[3,2-b]carbazole-6-carboxylate in aqueous buffer environment has a very low fluorescence signal (FIG. 1, bottom line at 328 nm). […] Indeed if ethyl 5,11-dihydroindolo[3,2-b]carbazole-6-carboxylate is a ligand of AhR it moves from an aqueous environment (buffer) to a more hydrophobic environment (hydrophobic internal binding site of the AhR receptor), causing the increase in fluorescence emission at 450 nm.", "data": [{"smiles": "CCOC(=O)c1c2[nH]c3ccccc3c2cc2[nH]c3ccccc3c12", "note": "[ethyl 5,11-dihydroindolo[3,2-b]carbazole-6-carboxylate]", "values": [{"measurement": "fluorescence emission on addition to the AhR (binding into the active site)", "setting": "excited at 280 nm, buffer environment, FIG. 1", "value": "causes the appearance of an emission peak with maximum at 450 nm"}, {"measurement": "binding affinity to AhR", "setting": "result in words, suitability for competitive binding assays", "value": "high enough to allow the competition of other compounds to the receptor, yet not too high"}]}]}
